{"source": "patent US11684617B2", "about": "“Methods of diagnosing and treating ADHD in biomarker positive subjects” (The Children's Hospital of Philadelphia, priority 2017, dated 2023)", "key": {"[1]": {"settings": "prior human studies; cited from earlier work"}, "[2]": {"test_system": "group I and group II/III mGluRs", "settings": "in vitro studies (Hirouchi 2000); cited from earlier work"}, "[3]": {"test_system": "dementia-related cognitive impairment", "settings": "cited from earlier work"}, "[4]": {"test_system": "CNV-positive adolescents with moderately severe ADHD", "test": "SAGA Phase 2 study: tolerability/safety, treatment-emergent adverse events (safety population)", "settings": "safety population; NFC-1 n = 47"}, "[5]": {"test_system": "CNV-positive adolescents with moderately severe ADHD", "settings": "in vivo"}, "[6]": {"test_system": "CNV-positive adolescents with moderately severe ADHD", "test": "SAGA Phase 2 study: remission (ADHD-RS-5 <=18, CGI-I 1, composite)", "assay_type": "in vivo, human", "settings": "endpoint; data not shown", "procedure": "(§1) The maximum dose was 400 mg BID or placebo.\nThe definition of a “remission” in this study was a response at endpoint of:\nA) ADHD-RS-5 Total score ≤18; • B) CGI-I score of 1. OR • C) Composite (both A and B)"}, "[7]": {"test_system": "CNV-positive adolescents with moderately severe ADHD", "test": "SAGA Phase 2 study: ADHD-RS-5 total score change from baseline (LOCF)", "assay_type": "in vivo, human", "set-up": "Response (% reduction in ADHD-RS score at endpoint from baseline): concentration or dose not given beside the values", "settings": "for Response (change from baseline in ADHD RS-5 total score): Table 19", "excerpt": "Subjects received randomized treatment with either NFC-1 or placebo. Subjects had ADHD as defined by the Diagnostic and Statistical Manual of Mental Disorders, 5th edition (DSM-5) and Version 5 of the Attention Deficit Hyperactivity Disorder Rating Scale (ADHD RS-5) >28 at Baseline with or without conventional ADHD therapy.\nThe study was a multicenter, Phase 2, double-blind, randomized, placebo-controlled, parallel-group, dose-optimization study. The study enrolled adolescents 12-17 yrs (inclusive) with ADHD defined by DSM-5 criteria.\nSubjects were CNV positive for a CNVs in at least one of the 273 Tier 1 or Tier 2 glutamatergic network genes of interest as listed in Table 1 or 2. These subjects positive for a CNV may also be termed “biomarker positive.”\nas §1\nEfficacy was assessed by the ADHD RS-5, CGI-I, CGI-S, the Adolescent Sleep Hygiene Scale (ASHS), and the Screen for Childhood Anxiety-related Emotional Disorders (SCARED).\nThe primary efficacy endpoint was the change from baseline in ADHD-RS-5 total score to end of study (last observation carried forward, LOCF) in Intent-to-Treat (ITT) population. The ITT population consisted of 101 patients randomized to NFC-1 or placebo."}, "animal models": {"test_system": "animal models", "settings": "cited from earlier work"}, "[8]": {"test_system": "CNV-positive adolescents with moderately severe ADHD", "test": "SAGA Phase 2 study: treatment response (responder: >=30% ADHD-RS-5 reduction, CGI-I 1 or 2, composite)", "assay_type": "in vivo, human", "settings": "for Responder? (Y/N): Table 19", "procedure": "as §1\nTreatment response was evaluated by measurement of responders and remission. The definition of a “responder” in this study was a response at endpoint of:\nA) ≥30% reduction from Baseline in ADHD-RS-5 Total score; • B) CGI-I score of 1 (very much improved) or 2 (much improved); OR • C) Composite (both A and B)\nThroughout, the “Response” columns represent the % reduction in ADHD-RS score at endpoint from baseline. […]"}, "pediatric ADHD subjects": {"test_system": "pediatric ADHD subjects", "settings": "pediatric ADHD subjects (Akhundian 2001); cited from earlier work"}, "[9]": {"settings": "NFC-1-treated patient with CNV in ADRA2A"}, "[10]": {"settings": "NFC-1-treated patient with CNV in CA8"}, "[11]": {"settings": "NFC-1-treated patient with CNV in GRM5"}, "[12]": {"settings": "NFC-1-treated patient with CNV in SNCA"}, "[13]": {"settings": "study end (LOCF), 8-Gene Subset including CNTN4, NFC-1 BID n = 17, p <0.0001 vs placebo"}, "[14]": {"settings": "study end (LOCF), CNTN4 Subset, NFC-1 BID n = 6, p <0.01 vs placebo"}, "[15]": {"settings": "treatment response at endpoint (ITT, LOCF), NFC-1 BID n = 46, p <0.05 vs placebo"}}, "note": "Where “and” joins values, the source holds several entries; their conditions need not be identical. Identical values can stand only once.", "data": [{"smiles": "O=C1CC[C@H](C(=O)N2CCCCC2)N1", "note": "[Fasoracetam, (+)-5-oxo-D-prolinepiperidinamide]", "values": [{"measurement": "bioavailable", "setting": "[1]", "value": "79%-97%"}, {"measurement": "half-life", "setting": "[1]", "value": "5 to 6.5", "unit": "h"}, {"measurement": "stimulation of mGluRs", "setting": "[2]", "value": "can stimulate both group I and group II/III mGluRs"}]}, {"smiles": "O=C1CC[C@H](C(=O)N2CCCCC2)N1", "note": "[NFC-1, fasoracetam monohydrate]", "values": [{"measurement": "safety and tolerability", "setting": "[3]; Phase I-III trials, dementia indications", "value": "generally safe and well tolerated"}, {"measurement": "effects on psychiatric symptoms", "setting": "[3]; Phase III data, cerebral infarct patients and adult dementia patients with cerebrovascular diseases", "value": "beneficial effects"}, {"measurement": "efficacy in dementia", "setting": "[3]; Phase III trials", "value": "did not show sufficient efficacy"}, {"measurement": "TEAE: Upper respiratory tract infection, % of subjects", "setting": "[4]", "value": 4, "unit": "%"}, {"measurement": "subjects in whom dosing with the highest dose (400 mg BID) was achieved", "setting": "[5]; human, 4 weeks", "value": 91, "unit": "%"}, {"measurement": "Any TEAE, % of subjects", "setting": "[5]; human, 6 weeks", "value": 70, "unit": "%"}, {"measurement": "Discontinuations due to TEAEs, % of subjects", "setting": "[5]; human, 6 weeks", "value": 6, "unit": "%"}, {"measurement": "TEAE: Accidental overdose, % of subjects", "setting": "[5]; human, 6 weeks", "value": 11, "unit": "%"}, {"measurement": "TEAE: Appetite increased, % of subjects", "setting": "[5]; human, 6 weeks", "value": 6, "unit": "%"}, {"measurement": "TEAE: Fatigue, % of subjects", "setting": "[5]; human, 6 weeks", "value": 15, "unit": "%"}, {"measurement": "TEAE: Headache, % of subjects", "setting": "[5]; human, 6 weeks", "value": 9, "unit": "%"}, {"measurement": "TEAE: Irritability, % of subjects", "setting": "[5]; human, 6 weeks", "value": 2, "unit": "%"}, {"measurement": "TEAE: Nasopharyngitis, % of subjects", "setting": "[5]; human, 6 weeks", "value": 2, "unit": "%"}, {"measurement": "TEAE: Nausea, % of subjects", "setting": "[5]; human, 6 weeks", "value": 6, "unit": "%"}, {"measurement": "TEAE: Weight increased, % of subjects", "setting": "[5]; human, 6 weeks", "value": 15, "unit": "%"}, {"measurement": "overall tolerability", "setting": "[5]", "value": "generally well-tolerated"}, {"measurement": "serious TEAEs", "setting": "[5]", "value": "No serious TEAEs were reported"}, {"measurement": "severity of TEAEs", "setting": "[5]", "value": "majority of TEAEs were mild-to-moderate"}, {"measurement": "difference between treatment groups in remission", "setting": "[6]", "value": "no significant difference"}, {"measurement": "difference between placebo and NFC-1 in ADHD-RS-5 total score change from Baseline to LOCF endpoint (primary endpoint)", "setting": "[7]; ITT, overall population, optimized dose 100, 200 or 400 mg BID", "value": "not significant"}, {"measurement": "Response (% reduction in ADHD-RS score at endpoint from baseline)", "setting": "[7]; Table 16, individual subjects with CNV in CNTN4 in the NFC-1-treated group, monohydrate", "value": "−41.46% and −35.9% and −77.42% and −70% and −62.5% and −48.65%"}, {"measurement": "Response (change from baseline in ADHD RS-5 total score)", "setting": "[7]; [9]", "value": "−65", "unit": "%"}, {"measurement": "Response (change from baseline in ADHD RS-5 total score)", "setting": "[7]; [10]", "value": "−33.3333", "unit": "%"}, {"measurement": "Response (change from baseline in ADHD RS-5 total score)", "setting": "[7]; [11]", "value": "−37.5", "unit": "%"}, {"measurement": "Response (change from baseline in ADHD RS-5 total score)", "setting": "[7]; [12]", "value": "−76.9231", "unit": "%"}, {"measurement": "Response (change from baseline in ADHD RS-5 total score)", "setting": "[7]; NFC-1-treated patients with CNV in GRM8, monohydrate", "value": "−48.2759% and −39.0244%"}, {"measurement": "effects on learning and memory", "setting": "animal models", "value": "Positive effects"}, {"measurement": "Responder? (Y/N)", "setting": "[8]; [9]", "value": "Y (“Responder” indicates a 30% or greater reduction from baseline in ADHD RS-5 total score)"}, {"measurement": "Responder? (Y/N)", "setting": "[8]; [10]", "value": "Y (“Responder” indicates a 30% or greater reduction from baseline in ADHD RS-5 total score)"}, {"measurement": "Responder? (Y/N)", "setting": "[8]; [11]", "value": "Y (“Responder” indicates a 30% or greater reduction from baseline in ADHD RS-5 total score)"}, {"measurement": "Responder? (Y/N)", "setting": "[8]; [12]", "value": "Y (“Responder” indicates a 30% or greater reduction from baseline in ADHD RS-5 total score)"}, {"measurement": "Responder? (Y/N)", "setting": "[8]; NFC-1-treated patients with CNV in CNTN4", "value": "Y (“Responder” indicates a 30% or greater reduction from baseline in ADHD RS-5 total score)"}, {"measurement": "Responder? (Y/N)", "setting": "[8]; NFC-1-treated patients with CNV in GRM8", "value": "Y (“Responder” indicates a 30% or greater reduction from baseline in ADHD RS-5 total score)"}, {"measurement": "ADHD-RS-5 Total Score: ≥30% Reduction from Baseline, % of subjects", "setting": "[8]; [13]", "value": "88% (15)"}, {"measurement": "CGI-I Score 1 or 2, % of subjects", "setting": "[8]; [13]", "value": "76% (13)"}, {"measurement": "Composite response, % of subjects", "setting": "[8]; [13]", "value": "76% (13)"}, {"measurement": "ADHD-RS-5 Total Score: ≥30% Reduction from Baseline, % of subjects", "setting": "[8]; study end (LOCF), CNTN4 Subset, NFC-1 BID n = 6, p <0.005 vs placebo", "value": "100% (6)"}, {"measurement": "CGI-I Score 1 or 2, % of subjects", "setting": "[8]; [14]", "value": "83% (5)"}, {"measurement": "Composite response, % of subjects", "setting": "[8]; [14]", "value": "83% (5)"}, {"measurement": "patients with 30% or greater reduction from baseline in ADHD RS-5 total score", "setting": "[8]; subjects with a CNV in CNTN4 assigned to NFC-1", "value": "6/6"}, {"measurement": "ADHD RS-5 Total Score: ≥30% Reduction from Baseline, % of subjects", "setting": "[8]; treatment response at endpoint (ITT, LOCF), NFC-1 BID n = 46, p <0.01 vs placebo", "value": "70% (32)"}, {"measurement": "CGI-I Score 1 or 2, % of subjects", "setting": "[8]; [15]", "value": "57% (26)"}, {"measurement": "Composite response, % of subjects", "setting": "[8]; [15]", "value": "57% (26)"}]}, {"smiles": "NC(=O)CN1CCCC1=O", "note": "[piracetam]", "values": [{"measurement": "effect on ADHD symptoms compared to placebo control", "setting": "pediatric ADHD subjects", "value": "increase ADHD symptoms"}]}]}
